From ChEMBL document CHEMBL1201862, “PubChem BioAssay data set” (2004)
Active and inactive are the calls of the source.

What was measured:
[1] = M. tuberculosis growth inhibition, HTS (AID 449762); assay type: functional
[2] = microbe, parasite or virus in culture; assay type: functional; details: Mycobacterium tuberculosis
[3] = molecular target: Peroxisome proliferator-activated receptor gamma/Nuclear receptor coactivator 3 (Homo sapiens, UniProt P37231); assay type: functional;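 note: agonist potency for raising coactivator recruitment to the receptor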
[4] = molecular target: Ubiquitin carboxyl-terminal hydrolase BAP1 (Homo sapiens, UniProt Q92560); test: inhibition of BAP1 ubiquitin hydrolase activity – biochemical, dose response (AID 714); assay type: functional
Ubiquitin carboxyl-terminal hydrolase BAP1, sequence (Q92560 whole entry): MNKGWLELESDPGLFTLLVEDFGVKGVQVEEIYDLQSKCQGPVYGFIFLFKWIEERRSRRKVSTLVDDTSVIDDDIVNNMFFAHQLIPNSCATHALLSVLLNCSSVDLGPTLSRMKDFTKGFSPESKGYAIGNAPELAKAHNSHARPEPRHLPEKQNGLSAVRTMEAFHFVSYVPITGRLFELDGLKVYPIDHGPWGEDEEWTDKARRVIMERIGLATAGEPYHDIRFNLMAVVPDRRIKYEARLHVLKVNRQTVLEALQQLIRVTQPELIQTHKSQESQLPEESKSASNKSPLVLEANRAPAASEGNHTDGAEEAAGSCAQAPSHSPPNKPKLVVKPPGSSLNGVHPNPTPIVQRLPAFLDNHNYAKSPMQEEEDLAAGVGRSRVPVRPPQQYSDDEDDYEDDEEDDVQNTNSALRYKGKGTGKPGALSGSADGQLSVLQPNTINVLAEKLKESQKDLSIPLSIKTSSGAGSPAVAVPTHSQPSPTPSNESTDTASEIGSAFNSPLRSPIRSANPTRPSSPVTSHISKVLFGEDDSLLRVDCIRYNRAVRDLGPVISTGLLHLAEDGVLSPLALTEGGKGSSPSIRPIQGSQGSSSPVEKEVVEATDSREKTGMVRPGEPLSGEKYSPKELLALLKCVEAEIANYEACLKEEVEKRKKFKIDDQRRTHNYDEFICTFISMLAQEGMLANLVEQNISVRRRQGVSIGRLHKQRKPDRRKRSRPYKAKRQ

[5] = molecular target: Peroxisome proliferator-activated receptor gamma/Nuclear receptor coactivator 2 (Homo sapiens, UniProt P37231); assay type: functional;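 note: agonist potency for raising coactivator recruitment to the receptor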
[6] = molecular target: Peroxisome proliferator-activated receptor gamma/Nuclear receptor coactivator 1 (Homo sapiens, UniProt P37231); assay type: functional;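 note: agonist potency as compounds enhance coactivator SRC-1 recruitment to PPARgamma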
[7] = molecular target: Induced myeloid leukemia cell differentiation protein Mcl-1 (Homo sapiens, UniProt Q07820); assay type: functional
Induced myeloid leukemia cell differentiation protein Mcl-1, sequence (Q07820 whole entry): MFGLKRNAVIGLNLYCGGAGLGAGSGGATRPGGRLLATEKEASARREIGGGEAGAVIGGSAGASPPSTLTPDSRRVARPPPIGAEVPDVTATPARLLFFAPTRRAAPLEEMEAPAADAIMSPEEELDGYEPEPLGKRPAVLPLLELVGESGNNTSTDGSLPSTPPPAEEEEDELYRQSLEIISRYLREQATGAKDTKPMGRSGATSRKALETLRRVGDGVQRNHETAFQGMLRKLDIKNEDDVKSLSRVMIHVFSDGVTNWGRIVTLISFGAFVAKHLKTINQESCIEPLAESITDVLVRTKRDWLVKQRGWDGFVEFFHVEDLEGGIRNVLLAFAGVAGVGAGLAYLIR

Protein Tat = Protein Tat (Human immunodeficiency virus type 1 group M subtype B (isolate HXB2)(HIV-1), UniProt P04608); assay type: functional;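 note: tat binding to TAR RNA read out by fluorescence polarization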
Protein Tat, sequence (P04608 whole entry): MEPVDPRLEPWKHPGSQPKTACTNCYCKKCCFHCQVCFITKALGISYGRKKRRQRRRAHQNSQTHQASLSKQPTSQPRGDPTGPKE

[8] = molecular target: Glutathione-S-transferase (Schistosoma japonicum, UniProt Q26513); test: GST-antibody interaction or FRET quenching – biochemical, TR-FRET, artefact control for Vif-APOBEC3G degradation inhibitor project, dose response (AID 1117362); assay type: functional
Glutathione-S-transferase, sequence (Q26513 whole entry): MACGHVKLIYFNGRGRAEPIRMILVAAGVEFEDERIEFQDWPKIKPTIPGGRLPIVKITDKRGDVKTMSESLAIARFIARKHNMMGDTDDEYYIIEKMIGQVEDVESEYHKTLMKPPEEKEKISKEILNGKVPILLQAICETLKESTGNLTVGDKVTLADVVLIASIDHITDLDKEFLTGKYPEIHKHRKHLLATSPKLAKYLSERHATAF

[9] = molecular target: Mitogen-activated protein kinase 10 (Homo sapiens, UniProt P53779); test: Dose response biochemical screening assay for inhibitors of c-Jun N-Terminal Kinase 3 (JNK3). [Related pubchem assays: 746 ]
NADPH oxidase 1 = NADPH oxidase 1 (Homo sapiens, UniProt Q9Y5S8); test: Late-stage luminescence-based cell-based dose response assay to identify inhibitors of NADPH oxidase 1 (NOX1): Purchased analogs 2.; assay type: functional
NADPH oxidase 1, sequence (Q9Y5S8 whole entry): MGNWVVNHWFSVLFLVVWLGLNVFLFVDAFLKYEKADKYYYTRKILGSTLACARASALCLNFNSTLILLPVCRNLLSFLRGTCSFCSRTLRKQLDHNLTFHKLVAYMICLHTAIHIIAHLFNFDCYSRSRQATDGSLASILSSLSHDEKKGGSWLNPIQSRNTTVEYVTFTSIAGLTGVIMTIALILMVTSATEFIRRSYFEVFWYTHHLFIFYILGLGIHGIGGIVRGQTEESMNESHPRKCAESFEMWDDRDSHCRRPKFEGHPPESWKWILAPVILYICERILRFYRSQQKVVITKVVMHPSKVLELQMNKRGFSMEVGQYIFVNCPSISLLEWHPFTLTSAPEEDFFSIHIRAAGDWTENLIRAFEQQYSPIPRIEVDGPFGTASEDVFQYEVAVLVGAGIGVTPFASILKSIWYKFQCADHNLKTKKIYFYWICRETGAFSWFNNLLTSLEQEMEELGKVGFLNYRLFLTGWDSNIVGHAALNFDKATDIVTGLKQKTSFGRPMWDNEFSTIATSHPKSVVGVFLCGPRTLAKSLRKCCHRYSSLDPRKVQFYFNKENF

[10] = Dd2 parasite growth inhibition in erythrocytes – SYBR Green, dry powder samples, set 9, dose response (AID 1159568); assay type: functional, cell-based
[11] = molecular target: Bifunctional protein GlmU (Mycobacterium tuberculosis, UniProt P9WMN3); test: Inhibitors of Mycobacterial Glucosamine-1-phosphate acetyl transferase (GlmU). Secondary screen.; parameters: species or system Mycobacterium tuberculosis H37Rv
Bifunctional protein GlmU, sequence (P9WMN3 whole entry): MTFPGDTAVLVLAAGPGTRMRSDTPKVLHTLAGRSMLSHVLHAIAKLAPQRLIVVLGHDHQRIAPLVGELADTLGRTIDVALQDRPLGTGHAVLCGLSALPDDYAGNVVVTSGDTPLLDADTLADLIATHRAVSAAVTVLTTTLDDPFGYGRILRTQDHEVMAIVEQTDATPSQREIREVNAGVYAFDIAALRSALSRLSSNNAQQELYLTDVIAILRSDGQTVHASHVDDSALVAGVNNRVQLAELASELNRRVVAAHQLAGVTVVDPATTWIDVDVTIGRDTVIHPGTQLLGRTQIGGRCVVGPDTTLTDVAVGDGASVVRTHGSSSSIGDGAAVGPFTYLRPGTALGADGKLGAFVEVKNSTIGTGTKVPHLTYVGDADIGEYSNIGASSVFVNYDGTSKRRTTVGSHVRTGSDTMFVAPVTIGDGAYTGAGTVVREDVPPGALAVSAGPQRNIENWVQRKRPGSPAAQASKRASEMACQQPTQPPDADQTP

[12] = molecular target: G-protein coupled receptor 183 (Homo sapiens, UniProt P32249); test: SAR confirmation of small molecule antagonists of the EBI2 receptor via a luminescent beta-arrestin assa.; assay type: functional
G-protein coupled receptor 183, sequence (P32249 whole entry): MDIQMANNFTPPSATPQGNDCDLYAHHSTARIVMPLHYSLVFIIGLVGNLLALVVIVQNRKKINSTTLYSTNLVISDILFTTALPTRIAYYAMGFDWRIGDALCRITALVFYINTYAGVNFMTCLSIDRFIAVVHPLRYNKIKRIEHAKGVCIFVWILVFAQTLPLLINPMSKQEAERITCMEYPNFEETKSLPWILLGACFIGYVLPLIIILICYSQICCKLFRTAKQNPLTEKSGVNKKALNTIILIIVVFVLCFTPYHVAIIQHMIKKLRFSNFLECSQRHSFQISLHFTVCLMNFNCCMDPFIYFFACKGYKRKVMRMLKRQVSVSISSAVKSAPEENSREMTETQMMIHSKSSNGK

D(3) dopamine receptor = D(3) dopamine receptor (Homo sapiens, UniProt P35462); test: Counterscreening of D4 Antagonists against Dopamine 3 DRD3 (Human), Confirmatory Assay.; assay type: functional
D(2) dopamine receptor [13] = molecular target: T1, D(2) dopamine receptor (Homo sapiens, UniProt P14416); test: human DRD2 long isoform antagonists – cell-based, D2L isoform, counter-screen for D4 antagonist project, confirmation (AID 743377); assay type: functional
T1 sequence (P14416 whole entry, canonical isoform): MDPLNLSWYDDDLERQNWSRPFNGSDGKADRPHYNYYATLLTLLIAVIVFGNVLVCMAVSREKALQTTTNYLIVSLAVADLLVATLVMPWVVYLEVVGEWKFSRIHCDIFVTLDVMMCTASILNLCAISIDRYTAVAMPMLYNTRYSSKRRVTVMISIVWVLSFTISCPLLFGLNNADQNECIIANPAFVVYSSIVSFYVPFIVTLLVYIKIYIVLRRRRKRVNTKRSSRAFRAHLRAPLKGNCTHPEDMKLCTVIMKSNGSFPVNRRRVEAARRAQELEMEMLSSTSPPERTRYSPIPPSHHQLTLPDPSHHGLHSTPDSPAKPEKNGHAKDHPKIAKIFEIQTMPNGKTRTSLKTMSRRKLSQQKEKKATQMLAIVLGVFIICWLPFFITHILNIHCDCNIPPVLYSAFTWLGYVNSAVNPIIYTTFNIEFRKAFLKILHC

D(1A) dopamine receptor = D(1A) dopamine receptor (Homo sapiens, UniProt P21728); test: Counterscreening of D4 Antagonists against Dopamine 1 (Human), Confirmatory Assay.; assay type: functional
D(1B) dopamine receptor = D(1B) dopamine receptor (Homo sapiens, UniProt P21918); test: Counterscreening of D4 Antagonists against Dopamine 5 DRD5 (Human), Confirmatory Assay.; assay type: functional
D(2) dopamine receptor [14] = molecular target: T1, D(2) dopamine receptor; test: Counterscreening of D4 Antagonists against Dopamine 2S (Human), Confirmatory Assay.; assay type: functional
[15] = NIH3T3 cell viability loss – ATP luminescence, mouse fibroblasts, counter-screen, dose response (AID 2010); assay type: functional, cell-based;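 note: cells exposed to compound for about 90 hours before reading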
Transthyretin = Transthyretin (Homo sapiens, UniProt P02766); test: Luminescence-based cell-based high throughput dose response assay to identify activators of Transthyretin (TTR) transcription.; assay type: functional
[16] = Trypanosoma cruzi growth suppression in host cells – NIH3T3 host cells, beta-gal luminescence, confirmation (AID 2044); assay type: functional, cell-based;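 note: intracellular parasites grown in NIH/3T3 mouse fibroblasts as host cells; luminescent beta-galactosidase reporter signal from transgenic T. cruzi replicating inside host cells; inhibitors lower the luminescence signal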
[17] = molecular target: RNA-editing ligase 1, mitochondrial (Trypanosoma brucei brucei, UniProt P86926); test: inhibition of trypanosome RNA editing ligase – biochemical, fluorescence, Trypanosoma brucei, dose response (AID 1117295); assay type: functional
[18] = molecular target: DNA (cytosine-5)-methyltransferase 1 (Homo sapiens, UniProt P26358); test: inhibition of DNA methylation by DNMT1 – biochemical, fluorescent molecular beacon, confirmation (AID 602386); assay type: functional
[19] = molecular target: 1-phosphatidylinositol 4,5-bisphosphate phosphodiesterase beta-3 (Homo sapiens, UniProt Q01970); test: Fluorescence-based biochemical high throughput dose response assay to identify inhibitors of phospholipase C isozymes (PLC-B3).
1-phosphatidylinositol 4,5-bisphosphate phosphodiesterase beta-3, sequence (Q01970 whole entry): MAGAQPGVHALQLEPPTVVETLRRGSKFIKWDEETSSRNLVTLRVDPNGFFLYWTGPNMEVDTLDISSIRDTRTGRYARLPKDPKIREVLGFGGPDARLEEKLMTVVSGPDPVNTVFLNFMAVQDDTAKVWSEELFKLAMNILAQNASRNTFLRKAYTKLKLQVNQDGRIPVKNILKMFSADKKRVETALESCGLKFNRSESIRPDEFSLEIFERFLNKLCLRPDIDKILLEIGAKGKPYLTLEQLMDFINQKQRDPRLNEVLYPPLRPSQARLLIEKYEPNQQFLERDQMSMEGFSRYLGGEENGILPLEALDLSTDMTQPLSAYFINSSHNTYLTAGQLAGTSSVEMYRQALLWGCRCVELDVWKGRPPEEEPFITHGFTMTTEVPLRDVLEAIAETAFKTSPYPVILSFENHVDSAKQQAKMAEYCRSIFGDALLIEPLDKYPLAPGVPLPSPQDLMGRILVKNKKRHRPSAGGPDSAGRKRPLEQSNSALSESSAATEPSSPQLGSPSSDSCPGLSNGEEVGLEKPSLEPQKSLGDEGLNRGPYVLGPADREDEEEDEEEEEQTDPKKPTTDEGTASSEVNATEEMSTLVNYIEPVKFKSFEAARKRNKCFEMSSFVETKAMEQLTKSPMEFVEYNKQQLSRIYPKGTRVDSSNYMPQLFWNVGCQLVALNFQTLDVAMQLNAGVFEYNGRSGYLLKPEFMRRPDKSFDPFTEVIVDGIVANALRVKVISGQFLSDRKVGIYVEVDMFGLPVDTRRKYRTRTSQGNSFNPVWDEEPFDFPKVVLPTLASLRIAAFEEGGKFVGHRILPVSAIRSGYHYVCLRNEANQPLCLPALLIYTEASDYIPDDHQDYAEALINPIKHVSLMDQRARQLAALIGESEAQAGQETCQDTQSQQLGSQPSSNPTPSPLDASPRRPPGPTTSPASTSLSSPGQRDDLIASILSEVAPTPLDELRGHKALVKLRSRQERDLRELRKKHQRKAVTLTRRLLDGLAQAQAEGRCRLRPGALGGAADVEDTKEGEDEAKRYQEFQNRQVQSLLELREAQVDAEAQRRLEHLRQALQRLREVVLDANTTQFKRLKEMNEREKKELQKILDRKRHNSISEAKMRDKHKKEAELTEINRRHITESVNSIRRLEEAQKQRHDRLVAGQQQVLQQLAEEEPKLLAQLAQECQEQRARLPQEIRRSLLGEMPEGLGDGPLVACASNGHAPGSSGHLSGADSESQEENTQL

[20] = molecular target: 1-phosphatidylinositol 4,5-bisphosphate phosphodiesterase gamma-1 (Homo sapiens, UniProt P19174); test: Counterscreen for inhibitors of phospholipase C isozymes (PLC-B3): Fluorescence-based biochemical high throughput dose response assay to identify inhibitors of phospholipase C isozymes (PLC-gamma1).
[21] = molecular target: T2, Histone-lysine N-methyltransferase NSD2 (Homo sapiens, UniProt O96028); assay type: biochemical
T2 sequence (O96028 whole entry): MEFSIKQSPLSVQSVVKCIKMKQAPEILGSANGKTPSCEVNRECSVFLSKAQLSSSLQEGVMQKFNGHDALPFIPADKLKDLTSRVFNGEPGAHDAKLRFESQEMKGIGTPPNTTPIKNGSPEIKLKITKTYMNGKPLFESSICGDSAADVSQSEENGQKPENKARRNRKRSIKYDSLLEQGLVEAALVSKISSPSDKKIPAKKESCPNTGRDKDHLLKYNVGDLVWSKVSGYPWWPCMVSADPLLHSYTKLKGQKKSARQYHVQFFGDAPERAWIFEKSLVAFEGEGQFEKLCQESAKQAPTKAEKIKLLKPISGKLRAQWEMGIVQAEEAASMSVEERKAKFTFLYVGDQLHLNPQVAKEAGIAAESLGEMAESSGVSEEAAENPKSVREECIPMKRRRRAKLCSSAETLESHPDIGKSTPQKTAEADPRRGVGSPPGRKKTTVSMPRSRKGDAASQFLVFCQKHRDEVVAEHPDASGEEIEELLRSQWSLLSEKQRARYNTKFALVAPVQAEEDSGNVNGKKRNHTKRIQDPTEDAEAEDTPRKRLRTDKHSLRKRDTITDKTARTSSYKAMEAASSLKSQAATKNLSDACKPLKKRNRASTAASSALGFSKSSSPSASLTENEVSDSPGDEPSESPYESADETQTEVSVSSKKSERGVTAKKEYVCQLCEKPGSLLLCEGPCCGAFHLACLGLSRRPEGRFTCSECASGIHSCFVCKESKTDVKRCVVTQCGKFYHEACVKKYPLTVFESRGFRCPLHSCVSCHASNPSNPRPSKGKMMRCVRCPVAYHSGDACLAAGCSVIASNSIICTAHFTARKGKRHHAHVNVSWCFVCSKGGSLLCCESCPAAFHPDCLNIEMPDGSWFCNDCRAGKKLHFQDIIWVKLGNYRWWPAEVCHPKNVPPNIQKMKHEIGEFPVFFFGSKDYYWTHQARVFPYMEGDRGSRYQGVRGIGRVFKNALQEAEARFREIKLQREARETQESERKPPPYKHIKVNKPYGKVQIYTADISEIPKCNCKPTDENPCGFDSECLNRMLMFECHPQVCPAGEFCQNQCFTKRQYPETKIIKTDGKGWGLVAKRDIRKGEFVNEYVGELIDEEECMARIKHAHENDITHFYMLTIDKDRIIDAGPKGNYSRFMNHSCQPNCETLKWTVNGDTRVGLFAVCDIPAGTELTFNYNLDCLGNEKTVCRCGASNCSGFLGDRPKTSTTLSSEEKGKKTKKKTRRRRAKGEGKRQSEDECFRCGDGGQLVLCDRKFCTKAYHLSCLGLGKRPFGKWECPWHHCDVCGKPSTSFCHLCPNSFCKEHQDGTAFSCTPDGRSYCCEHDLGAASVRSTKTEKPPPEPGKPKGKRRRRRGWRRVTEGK

[22] = molecular target: T3, Zinc finger protein mex-5 (Caenorhabditis elegans, UniProt Q9XUB2); test: potency of MEX-5 RNA-binding blockers – biochemical, C. elegans, fluorescence polarization, dose response (AID 1960)
T3 sequence (Q9XUB2 whole entry): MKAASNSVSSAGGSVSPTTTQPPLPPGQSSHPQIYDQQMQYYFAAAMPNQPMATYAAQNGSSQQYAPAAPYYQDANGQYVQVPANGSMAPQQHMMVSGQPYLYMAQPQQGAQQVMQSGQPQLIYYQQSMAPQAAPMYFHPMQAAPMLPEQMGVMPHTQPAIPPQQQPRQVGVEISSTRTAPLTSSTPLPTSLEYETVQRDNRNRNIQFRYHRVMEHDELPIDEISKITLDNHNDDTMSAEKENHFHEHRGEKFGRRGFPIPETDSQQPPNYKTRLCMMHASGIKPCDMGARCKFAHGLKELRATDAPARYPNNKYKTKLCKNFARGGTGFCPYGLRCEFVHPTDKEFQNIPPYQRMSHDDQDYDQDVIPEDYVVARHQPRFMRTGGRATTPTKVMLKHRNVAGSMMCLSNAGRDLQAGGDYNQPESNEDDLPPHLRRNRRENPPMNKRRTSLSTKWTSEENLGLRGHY

Caspase-9 = Caspase-9 (Homo sapiens, UniProt P55211); test: inhibitors of purified CASP9 protease – biochemical, fluorescence, plate reader, cherry-picked samples, selectivity assay for caspase-6 inhibitor project, dose response (AID 743293)
[23] = molecular target: T4, RNA-binding protein pos-1 (Caenorhabditis elegans, UniProt G5EF15); test: disruptors of C. elegans POS-1 RNA interaction – biochemical, fluorescence polarization, dose response (AID 1964);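 note: purified POS-1 fused to maltose binding protein made in E. coli; potency of compounds blocking POS-1 binding to fluorescent RNA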
T4 sequence (G5EF15 whole entry): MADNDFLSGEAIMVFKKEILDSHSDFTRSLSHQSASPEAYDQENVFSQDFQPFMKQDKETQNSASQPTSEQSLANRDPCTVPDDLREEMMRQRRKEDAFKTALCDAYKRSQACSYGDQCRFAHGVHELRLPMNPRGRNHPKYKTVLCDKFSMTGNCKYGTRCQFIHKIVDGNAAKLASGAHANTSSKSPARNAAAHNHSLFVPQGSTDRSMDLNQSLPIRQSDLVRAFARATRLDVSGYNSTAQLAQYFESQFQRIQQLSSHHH

Caspase-6 = Caspase-6 (Homo sapiens, UniProt P55212); test: inhibition of CASP6 peptide cleavage – biochemical, VEID-R110 fluorescence, cherry-pick, dose response (AID 720632)
[24] = viability loss in Vero cells – cytotoxicity control for Vif-APOBEC3G degradation inhibitor project, dose response (AID 1117358); assay type: functional; details: Vero
[25] = molecular target: E3 ubiquitin-protein ligase Mdm2 (Homo sapiens, UniProt Q00987); test: MDM2-luc reporter signal enhancers, multi-concentration potency testing, MDM2 ubiquitin-protein ligase inhibitor program, whole-cell format, luminescence detection, 384-well microplate (AID 1394); assay type: functional;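 note: MDM2 E3 inhibitors raise luminescence so EC50 is for signal enhancement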
[26] = molecular target: Peroxisome proliferator-activated receptor gamma/Nuclear receptor corepressor 2 (Homo sapiens, UniProt P37231+Q9Y618); test: Counterscreen for NR2E3 inverse agonists: TR-FRET-based biochemical high throughput dose response assay to identify inverse agonists of the interaction between peroxisome proliferator-activated receptor gamma (PPARg) and nuclear receptor co-repressor 2 (NCOR2).; assay type: functional
[27] = molecular target: Photoreceptor-specific nuclear receptor (Homo sapiens, UniProt Q9Y5X4); test: ligands suppressing NR2E3 nuclear receptor activity – biochemical, TR-FRET, dose response (AID 463256); assay type: functional
Photoreceptor-specific nuclear receptor, sequence (Q9Y5X4 whole entry): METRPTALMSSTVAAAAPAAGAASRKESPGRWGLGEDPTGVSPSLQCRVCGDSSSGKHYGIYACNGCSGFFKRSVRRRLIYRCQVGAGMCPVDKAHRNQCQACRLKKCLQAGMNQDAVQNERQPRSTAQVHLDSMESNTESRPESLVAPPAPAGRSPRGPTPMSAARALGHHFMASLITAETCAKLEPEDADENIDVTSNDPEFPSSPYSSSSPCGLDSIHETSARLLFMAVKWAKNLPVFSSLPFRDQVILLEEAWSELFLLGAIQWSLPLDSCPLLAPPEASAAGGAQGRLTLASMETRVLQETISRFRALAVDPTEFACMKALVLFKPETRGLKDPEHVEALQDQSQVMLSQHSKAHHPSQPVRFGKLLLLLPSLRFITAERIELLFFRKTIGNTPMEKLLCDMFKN

[28] = molecular target: G-protein coupled receptor 55 (Homo sapiens, UniProt Q9Y2T6); test: selective activators of receptor GPR55 – imaging, U2OS cells, beta-arrestin-GFP redistribution, primary screen (AID 1961); assay type: functional
[29] = HIV-1 Vif–A3G interaction blockers – biochemical, TR-FRET, GST-Vif 1-94, biotin-A3G peptide, dose response retest, primary screen (AID 1117319); assay type: functional;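 note: TR-FRET signal of purified GST-Vif binding a biotinylated A3G peptide; inhibitors lower the FRET signal by blocking Vif and A3G binding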

## COc1ccccc1/C=N/NC(=O)NC12CC3CC(CC(C3)C1)C2
[1]
  IC50: > 100 µM (active)
[2]
  CC50: > 40 µM (active)

## CCc1nc(SCC(=O)Nc2ccc3c(c2)OCCO3)c2oc3ccccc3c2n1
[3]
  EC50: > 79.4 µM (not active)
[4]
  IC50: 13.9 µM (active)
[5]
  EC50: 23.3 µM (not active)
[6]
  EC50: > 79.4 µM (not active)

## CC1=Nc2cccc3cccc(c23)N1
[7]
  IC50: 3.71 µM (active)
Protein Tat
  IC50: > 100 µM (inconclusive)
[8]
  IC50: > 100 µM (active)

## Cc1oc2ccc(OCC(N)=O)cc2c1C(=O)OC(C)C
[9]
  IC50: 44.9 µM (not active)

## O=C(Oc1ccccc1)c1cc2cc([N+](=O)[O-])ccc2s1
NADPH oxidase 1
  IC50: > 17 µM (not active)

## COc1ccc(NC(=O)N2CCCCN3[C@H](CO)[C@@H](c4ccc(-c5ccccc5F)cc4)[C@H]3C2)cc1
[10]
  AC50: 1.81 µM (active)

## O=C1OCC2OC(O)C(O)C(O)C2OC(=O)c2cc(O)c(O)c(O)c2-c2c(O)c(O)c3oc(=O)c4c(c(O)c(O)c5oc(=O)c2c3c54)-c2c1cc(O)c(O)c2O (stereo not drawn)
[7]
  IC50: 1.56 µM (active)
[11]
  IC50: < 1 µM (active)

## O=C(/C=C/c1ccc(F)cc1)N1CCN(S(=O)(=O)c2ccc(Br)cc2)CC1
[12]
  IC50: 0.00343 µM (active)

## COc1ccc(CN2CCO[C@@H](CCc3ccccc3)C2)cc1
D(3) dopamine receptor
  IC50: 8.17 µM (active)
D(2) dopamine receptor [13]
  IC50: 16.5 µM (active)
D(1A) dopamine receptor
  IC50: 20 µM (inactive)
D(1B) dopamine receptor
  IC50: 20 µM (inactive)
D(2) dopamine receptor [14]
  IC50: 20 µM (inactive)

## Cc1nnc(SCc2ccc(Cl)cc2)nc1/C=C/N(C)C
[15]
  EC50: > 60 µM (not active)
Transthyretin
  EC50: > 167 µM (inactive)
[16]
  EC50: 0.66 µM (active)

## Nc1cc(S(=O)(=O)O)cc([N+](=O)[O-])c1O
[17]
  IC50: 4.99 µM (active)
[18]
  IC50: 3.2 µM (active)
[19]
  IC50: > 123 µM (inactive)
[20]
  IC50: 3.97 µM (active)
[21]
  AC50: 16.3 µM (active)
[22]
  EC50: > 300 µM (not active)
Caspase-9
  AC50: > 70 µM (inactive)
[23]
  EC50: > 300 µM (not active)
Caspase-6
  AC50: 3.5 µM (active)

## O=C(c1ccco1)N(CCC(c1ccccc1)c1ccco1)Cc1ccc(F)cc1 (stereo not drawn)
[24]
  CC50: > 40 µM (active)

## Cc1ccc(-n2c(C)cc(C=C3C(=O)CC(C)(C)CC3=O)c2C)cc1
[25]
  EC50: 17.4 µM (not active)

## COc1cccc2sc(NC(=O)c3ccc(Br)s3)nc12
[26]
  IC50: 2.95 µM (active)
[27]
  IC50: 3.41 µM (active)
[28]
  EC50: > 32 µM (inactive)

## COc1ccc(Nc2nc(N)nc(CSC(=S)N3CCN(c4ccccc4)CC3)n2)cc1
[29]
  IC50: > 100 µM (active)
